Calls of active or inactive are those of the source. The rule behind the calls is not given here.

The record followed here is ChEMBL document CHEMBL6134851, “Comparative Study on Covalent and Noncovalent Endogenous Albumin-Binding β-Glucuronidase-Activated SN38 Prodrugs for Antitumor Efficacy” (J Med Chem, 2025).

Data set [1] in a line: Toxicity in female BALB/cA nude mouse assessed as effect on body weight loss at 38 mg/kg, iv administered twice per week measured after 107 days. The format is organism-based. As to conditions: in vivo, 2568 h, time 107 day.
Data set [2] in a line: Toxicity in female BALB/cA nude mouse assessed as fibrotic changes in heart at 38 mg/kg, iv administered once a week for 35 days by H and E staining based analysis. To be noted: in vivo, 840 h, time 35 day. Type of data set: organism-based.
A short description of data set [3]: Toxicity in female BALB/cA nude mouse assessed as appearance of fibrosis in lung at 38 mg/kg, iv measured after 24 hrs by H and E staining based analysis. As to conditions: in vivo. The format is organism-based.
A short description of data set [4]: Cmax in female BALB/c mouse at 38 mg/kg measured up to 168 hrs by HPLC analysis. Type of data set: ADME, organism-based. To be noted: in vivo.
In data set [5] the test system is HCT-116. In words: Antitumor activity against human HCT-116 cells xenografted in female BALB/cA nude mouse model assessed as tumor shrinkage by measuring relative tumor proliferation rate at 25 mg/kg,iv administered twice per week and measured after 24 days relative to control. Type of data set: functional. To be noted: time 24 day. On the technique in general: In xenograft studies the graft and the host belong to different species.

The nature of data set [6]: Toxicity in female BALB/cA nude mouse assessed as fibrotic changes in tumor at 25 mg/kg, iv administered once a week for 35 days by H and E staining based analysis. The format is organism-based. To be noted: in vivo, 840 h, time 35 day.
Data set [7] can be described thus: Toxicity in female BALB/cA nude mouse assessed as inflammatory response in liver at 25 mg/kg, iv measured after 24 hrs by H and E staining based analysis. As to conditions: in vivo. The format is organism-based.
Data set [8] is described as follows: Volume of distribution in female BALB/c mouse at 25 mg/kg measured up to 120 hrs by HPLC analysis. Type of data set: ADME, organism-based. As to conditions: in vivo.
Data set [9] deals with HCT-116. In words: Antitumor activity against human HCT-116 cells xenografted in female BALB/cA nude mouse model assessed as increase in tumor cell apoptosis by measuring increase in red fluorescence at 25 mg/kg, iv by TUNEL analysis. Type of data set: functional, organism-based.

In general, Cmax refers to the highest concentration seen after dosing. As to `CCc1c2c(nc3ccc(OCc4ccc(O[C@@H]5O[C@H](C(=O)O)[C@@H](O)[C@H](O)[C@H]5O)c(NC(=O)CCNC(=O)COCCOCCNC(=O)COCCOCCNC(=O)CC[C@H](NC(=O)CCCCCCCCCCCCCCCCC(=O)O)C(=O)O)c4)cc13)-c1cc3c(c(=O)n1C2)COC(=O)[C@]3(O)CC`, the Activity entry is reported as “Toxic” in data set [1], “Non-toxic” in data set [2] and “Toxic” in [3]. The molecule further returned a Cmax in [4] of 112 µg/mL.
The Vd is the apparent volume that relates the amount in the body to the concentration in plasma or blood. Regarding `CCc1c2c(nc3ccc(OCc4ccc(O[C@@H]5O[C@H](C(=O)O)[C@@H](O)[C@H](O)[C@H]5O)c(NC(=O)CCNC(=O)CCCCCN5C(=O)C=CC5=O)c4)cc13)-c1cc3c(c(=O)n1C2)COC(=O)[C@]3(O)CC`, the Activity in the data set on HCT-116 [5] was 4.6%; in data set [6] it was “Non-toxic”; in data set [7], “Toxic”. Besides, the distribution volume (Vd) in data set [8] was found to be 0.61 L/kg. In addition, the outcome with HCT-116 [9] was Active.
